Data as given in patent US20240262803A1, “COMPOUNDS, COMPOSITIONS AND METHODS OF TREATING DISORDERS” (Chungdu Anticancer Bioscience Ltd, priority 2021, published 2024).
Read-outs that look alike come from different tables or passages of the source.

Assays:
RPEMYC^H2B-GFP cells [1] = experiment: Mechanism-informed phenotypic screening assay (mitotic arrest, polyploidy; GE IN-Cell Analyzer 2000); assay type: cell-based; conditions: 20 nM to 20 μM, 24, 48 or 72 hours, read-out: Min. Effective conc. for polyploidy (≥5%)
Experimental: We have Previously Developed a Mechanism-Informed Phenotypic Screening Assay to identify novel antimitotic agents (Li et al. 2019). Equipped with a prior understanding of the versatile functions of the chromosomal passenger protein (CPP) complex in orchestrating karyokinesis and cytokinesis, the screening assay is to score for phenotypes typically seen when the CPP complex is disabled. Specifically, the parameters for a positive hit are a temporary elevation of mitotic index (MI) at 24 hours of drug treatment and an accumulation of polyploid cells at 48 hours of drug treatment, indicative of mitotic arrest and cytokinetic failure respectively. These parameters exclude compounds that elicit only a prolonged arrest of cells in mitosis, a phenotype typically provoked by spindle toxins. The screening procedure is briefly summarized here. RPEMYC^H2B-GFP cells engineered to express a Histone 2B-EGFP fusion protein were passaged as batches of 96-well plates, 18-24 hours before exposure to the chemical compounds of the present disclosure at concentrations from 20 nM to 20 μM. At 24, 48 or 72 hours after initiation of treatment, cells were analyzed for either an arrest in mitosis or a change in DNA content by GE IN-Cell Analyzer 2000. As set forth in table 2 below, a value of greater than or equal to […] and less than or equal to 1.0 μM is marked e “A”; a value greater than […] and less than or equal to 10.0 μM is marked “B”; a value greater than 10.0 μM and less than or equal to 30.0 μM is marked “C”; and a value greater than 30.0 μM is marked “D.”

RPEMYC^H2B-GFP cells [2] = experiment: as above; assay type: cell-based; conditions: 20 nM to 20 μM, 24, 48 or 72 hours, read-out: Mitotic Arrest (≥5%)

| SMILES | minimal effective concentration (RPEMYC^H2B-GFP cells [1]) | minimal effective concentration (RPEMYC^H2B-GFP cells [2]) |
| --- | --- | --- |
| CNC(=O)c1cc(OC)cc(Oc2ncccc2-c2cncnc2)c1 [Compound 91, 3-methoxy-N-methyl-5-((3-(pyrimidin-5-yl)pyridin-2-yl)oxy)benzamide] | 1 µM | 1 µM |
| CNC(=O)c1cc(Oc2ncccc2-c2ccncc2)cc(-c2cnn(C)c2)c1 [Compound 90, 3-([3,4′-bipyridin]-2-yloxy)-N-methyl-5-(1-methyl-1H-pyrazol-4-yl)benzamide] | 1 µM | 1 µM |
| COc1cc(Oc2ncccc2-c2ccnc(C)c2)cc(O[C@H]2CCOC2)c1 [Compound 95, (S)-2-(3-methoxy-5-((tetrahydrofuran-3-yl)oxy)phenoxy)-2′-methyl-3,4′-bipyridine] | 1 µM | 1 µM |
| COc1cc(OC)cc(Oc2ncccc2-c2cccnc2)c1 [Compound 47, 2-(3,5-dimethoxyphenoxy)-3,3′-bipyridine] | 1 µM | 1 µM |
| CNC(=O)c1cc(Oc2ncccc2-c2ccnc(C)c2)cc(OC2CCOC2)c1 (stereo not drawn) [Compound 96, N-methyl-3-((2′-methyl-[3,4′-bipyridin]-2-yl)oxy)-5-((tetrahydrofuran-3-yl)oxy)benzamide] | 1 µM | 1 µM |
| CCOc1cc(Oc2ncccc2-c2ccnc(C(F)(F)F)c2)cc(C(=O)NC)c1 [Compound 67, 3-ethoxy-N-methyl-5-((2′-(trifluoromethyl)-[3,4′-bipyridin]-2-yl)oxy)benzamide] | 0.001 to 10 µM | 0.001 to 10 µM |
| COc1cc(OC)cc(Oc2ncccc2-c2ccnc(SC)n2)c1 [Compound 62, 4-(2-(3,5-dimethoxyphenoxy)pyridin-3-yl)-2-(methylthio)pyrimidine] | 0.001 to 10 µM | 0.001 to 10 µM |
| CNC(=O)c1cc(Oc2ncccc2-c2ccncc2)cc(OC2CCOC2)c1 (stereo not drawn) [Compound 101, 3-([3,4′-bipyridin]-2-yloxy)-N-methyl-5-((tetrahydrofuran-3-yl)oxy)benzamide] | 1 µM | 1 µM |
| CNC(=O)c1cc(OC)cc(Oc2ncccc2-c2ccnc(N)n2)c1 [Compound 25, 3-((3-(2-aminopyrimidin-4-yl)pyridin-2-yl)oxy)-5-methoxy-N-methylbenzamide] | 1 µM | 1 µM |
| COc1cc(OC)cc(Oc2ncccc2-c2cc(OC)ncn2)c1 [Compound 60, 4-(2-(3,5-dimethoxyphenoxy)pyridin-3-yl)-6-methoxypyrimidine] | 1 µM | 1 µM |
| CNC(=O)c1cc(OC)cc(Oc2ncccc2-c2ccnc(C(F)(F)F)c2)c1 [Compound 66, 3-methoxy-N-methyl-5-((2′-(trifluoromethyl)-[3,4′-bipyridin]-2-yl)oxy)benzamide] | 1 µM | 1 µM |
| COc1cc(OC)cc(Oc2cncc(-c3cccc(F)c3)n2)c1 [Compound 83, 2-(3,5-dimethoxyphenoxy)-6-(3-fluorophenyl)pyrazine] | > 30 µM | > 30 µM |
| CCOCCOc1cc(-c2cccnc2Oc2cc(OC)cc(C(=O)NC)c2)ccn1 [Compound 85, 3-((2′-(2-ethoxyethoxy)-[3,4′-bipyridin]-2-yl)oxy)-5-methoxy-N-methylbenzamide] | 1 µM | 1 µM |
| COc1cc(Oc2ncccc2-c2ccncc2)cc(C(=O)N(C)C)c1 [Compound 5, 3-([3,4′-bipyridin]-2-yloxy)-5-methoxy-N,N-dimethylbenzamide] | 0.001 to 10 µM | 0.001 to 10 µM |
| COc1cc(OC)cc(Oc2nccnc2-c2ccccc2)c1 [Compound 57, 2-(3,5-dimethoxyphenoxy)-3-phenylpyrazine] | 0.001 to 10 µM | 0.001 to 10 µM |
